Measured values published in patent US8449898B2 (priority 2007, dated 2013).
Like-named read-outs stand apart in the source and are kept apart here.

Columns and labels:
[1] = test system: Phytophthora infestans (the causal agent of tomato late blight); experiment: whole plant or invertebrate; assay type: in vivo; details: for TLB Obsd (disease control rating): Table B; for TLB Obsd: component (b) alone
[2] = test system: Pseudoperonospora cubensis (the causal agent of cucumber downy mildew); experiment: Test B: cucumber downy mildew, preventive spray on cucumber seedlings; assay type: in vivo; details: for CDM Obsd (disease control rating): Table B
[3] = Phytophthora infestans, read-out: TLB Obsd, component (b) alone, 2 ppm
[4] = Phytophthora infestans, read-out: TLB Obsd, component (b) alone, 10 ppm
[5] = Phytophthora infestans, read-out: TLB Obsd, component (b) alone, 40 ppm
[6] = Phytophthora infestans, read-out: TLB Obsd, component (b) alone, 200 ppm
[7] = Pseudoperonospora cubensis, component (b) alone, 2 ppm, read-out: CDM Obsd
[8] = Pseudoperonospora cubensis, component (b) alone, 10 ppm, read-out: CDM Obsd
[9] = Pseudoperonospora cubensis, component (b) alone, 40 ppm, read-out: CDM Obsd
[10] = Pseudoperonospora cubensis, component (b) alone, 200 ppm, read-out: CDM Obsd
[11] = component (b) alone 0.08 ppm (Compound 1 0 ppm)
[12] = component (b) alone 0.4 ppm (Compound 1 0 ppm)
[13] = component (b) alone 2 ppm (Compound 1 0 ppm)
[14] = component (b) alone 10 ppm (Compound 1 0 ppm)

CO/N=C(/C(=O)OC)c1ccccc1COc1ccccc1C [kresoxim-methyl]
pest or weed control at 0.4 ppm ([1]; Phytophthora infestans, read-out: TLB Obsd (disease control rating), Table C, component (b) alone 0.4 ppm): 9% | pest or weed control at 2 ppm ([1]; Phytophthora infestans, read-out: TLB Obsd (disease control rating), Table C, component (b) alone 2 ppm): 33% | pest or weed control at 10 ppm ([1]; Phytophthora infestans, read-out: TLB Obsd (disease control rating), Table C, component (b) alone 10 ppm): 80% | pest or weed control at 40 ppm ([1]; Phytophthora infestans, read-out: TLB Obsd (disease control rating), Table C, component (b) alone 40 ppm): 99% | pest or weed control at 200 ppm ([1]; Phytophthora infestans, read-out: TLB Obsd (disease control rating), Table C, component (b) alone 200 ppm): 99% | pest or weed control at 0.04 ppm ([1]; Phytophthora infestans, read-out: TLB Obsd, component (b) alone, 0.04 ppm): 8% | pest or weed control at 2 ppm [1, 3]: 32% | pest or weed control at 10 ppm [1, 4]: 86% | pest or weed control at 40 ppm [1, 5]: 96% | pest or weed control at 200 ppm [1, 6]: 100% | pest or weed control at 0.4 ppm ([2]; Pseudoperonospora cubensis, Table C, component (b) alone 0.4 ppm, read-out: CDM Obsd (disease control rating)): 47% | pest or weed control at 2 ppm ([2]; Pseudoperonospora cubensis, Table C, component (b) alone 2 ppm, read-out: CDM Obsd (disease control rating)): 47% | pest or weed control at 10 ppm ([2]; Pseudoperonospora cubensis, Table C, component (b) alone 10 ppm, read-out: CDM Obsd (disease control rating)): 53% | pest or weed control at 40 ppm ([2]; Pseudoperonospora cubensis, Table C, component (b) alone 40 ppm, read-out: CDM Obsd (disease control rating)): 57% | pest or weed control at 200 ppm ([2]; Pseudoperonospora cubensis, Table C, component (b) alone 200 ppm, read-out: CDM Obsd (disease control rating)): 100% | pest or weed control at 0.4 µg/mL ([2]; Pseudoperonospora cubensis, component (b) alone 0.4 ppm (Compound 1 0 ppm), read-out: CDM Obsd): 47% | pest or weed control at 2 µg/mL ([2]; Pseudoperonospora cubensis, component (b) alone 2 ppm (Compound 1 0 ppm), read-out: CDM Obsd): 47% | pest or weed control at 10 µg/mL ([2]; Pseudoperonospora cubensis, component (b) alone 10 ppm (Compound 1 0 ppm), read-out: CDM Obsd): 47% | pest or weed control at 40 µg/mL ([2]; Pseudoperonospora cubensis, component (b) alone 40 ppm (Compound 1 0 ppm), read-out: CDM Obsd): 99% | pest or weed control at 200 µg/mL ([2]; Pseudoperonospora cubensis, component (b) alone 200 ppm (Compound 1 0 ppm), read-out: CDM Obsd): 100% | pest or weed control at 0.04 ppm ([2]; Pseudoperonospora cubensis, component (b) alone, 0.04 ppm, read-out: CDM Obsd): 9% | pest or weed control at 2 ppm [2, 7]: 9% | pest or weed control at 10 ppm [2, 8]: 30% | pest or weed control at 40 ppm [2, 9]: 37% | pest or weed control at 200 ppm [2, 10]: 100%

benthiovalicarb
TLB Obsd (disease control rating) ([1]; component (b) alone 0.4 ppm): 53% | TLB Obsd (disease control rating) ([1]; component (b) alone 2 ppm): 100% | TLB Obsd (disease control rating) ([1]; component (b) alone 10 ppm): 100% | TLB Obsd (disease control rating) ([1]; component (b) alone 40 ppm): 100% | CDM Obsd (disease control rating) ([2]; component (b) alone 0.4 ppm): 90% | CDM Obsd (disease control rating) ([2]; component (b) alone 2 ppm): 100% | CDM Obsd (disease control rating) ([2]; component (b) alone 10 ppm): 100% | CDM Obsd (disease control rating) ([2]; component (b) alone 40 ppm): 100% | CDM Obsd [2, 11]: 33% | CDM Obsd [2, 12]: 86% | CDM Obsd [2, 13]: 100% | CDM Obsd [2, 14]: 100% | CDM Obsd ([2]; component (b) alone 40 ppm (Compound 1 0 ppm)): 100%

Fc1ccc(Oc2ccnc3cc(Cl)cc(Cl)c23)cc1 [quinoxyfen]
pest or weed control at 0.016 ppm ([1]; Phytophthora infestans, read-out: TLB Obsd, Table E, component (b) alone at 0.016 ppm): 9% | pest or weed control at 0.08 ppm ([1]; Phytophthora infestans, read-out: TLB Obsd, Table E, component (b) alone at 0.08 ppm): 24% | pest or weed control at 0.4 ppm ([1]; Phytophthora infestans, read-out: TLB Obsd, Table E, component (b) alone at 0.4 ppm): 26% | pest or weed control at 2 ppm ([1]; Phytophthora infestans, read-out: TLB Obsd, Table E, component (b) alone at 2 ppm): 9% | pest or weed control at 10 ppm ([1]; Phytophthora infestans, read-out: TLB Obsd, Table E, component (b) alone at 10 ppm): 9% | pest or weed control at 0.4 ppm ([1]; Phytophthora infestans, read-out: TLB Obsd, component (b) alone, 0.4 ppm): 0% | pest or weed control at 2 ppm [1, 3]: 7% | pest or weed control at 10 ppm [1, 4]: 7% | pest or weed control at 40 ppm [1, 5]: 0% | pest or weed control at 200 ppm [1, 6]: 0% | pest or weed control at 0.016 ppm ([2]; Pseudoperonospora cubensis, Table F, component (b) alone at 0.016 ppm, read-out: CDM Obsd): 26% | pest or weed control at 0.08 ppm ([2]; Pseudoperonospora cubensis, Table F, component (b) alone at 0.08 ppm, read-out: CDM Obsd): 26% | pest or weed control at 0.4 ppm ([2]; Pseudoperonospora cubensis, Table F, component (b) alone at 0.4 ppm, read-out: CDM Obsd): 26% | pest or weed control at 2 ppm ([2]; Pseudoperonospora cubensis, Table F, component (b) alone at 2 ppm, read-out: CDM Obsd): 26% | pest or weed control at 10 ppm ([2]; Pseudoperonospora cubensis, Table F, component (b) alone at 10 ppm, read-out: CDM Obsd): 26% | pest or weed control at 0.4 ppm ([2]; Pseudoperonospora cubensis, component (b) alone, 0.4 ppm, read-out: CDM Obsd): 0% | pest or weed control at 2 ppm [2, 7]: 0% | pest or weed control at 10 ppm [2, 8]: 0% | pest or weed control at 40 ppm [2, 9]: 0% | pest or weed control at 200 ppm [2, 10]: 0%

COC(=O)CC(NC(=O)[C@@H](NC(=O)OC(C)C)C(C)C)c1ccc(Cl)cc1 (stereo partly shown) [valiphenal]
TLB Obsd ([1]; 0.016 ppm): 8% | TLB Obsd ([1]; 0.08 ppm): 8% | TLB Obsd ([1]; 0.4 ppm): 8% | TLB Obsd ([1]; 2 ppm): 32% | TLB Obsd ([1]; 10 ppm): 99% | CDM Obsd ([2]; component (b) alone 0.016 ppm (Compound 1 0 ppm)): 65% | CDM Obsd [2, 11]: 47% | CDM Obsd [2, 12]: 47% | CDM Obsd [2, 13]: 47% | CDM Obsd [2, 14]: 57% | CDM Obsd ([2]; component (b) alone, 0.016 ppm): 31% | CDM Obsd ([2]; component (b) alone, 0.08 ppm): 16% | CDM Obsd ([2]; component (b) alone, 0.4 ppm): 16% | CDM Obsd ([2]; component (b) alone, 2 ppm): 53% | CDM Obsd ([2]; component (b) alone, 10 ppm): 100%
